According to publication PMC6540285, “Evaluation of Protein Kinase Inhibitors with PLK4 Cross-Over Potential in a Pre-Clinical Model of Cancer” (International Journal of Molecular Sciences, 2019):
pIC50: −log10 of the molar value.

What was measured:
DMPK = DMPK (Homo sapiens, UniProt Q09013); assay: SelectScreen kinase profiling, LanthaScreen binding
MAP2K1 (MEK1) = MAP2K1 (MEK1) (Homo sapiens, UniProt Q02750); assay: as above
TEK (TIE2) Y1108F = TEK (TIE2) Y1108F (Homo sapiens, UniProt Q02763, Y1108F); assay: as above
MON cells = assay: cells; conditions: read-out: MTT: IC50 of the proliferation assay
MLK4 = MLK4 (Homo sapiens, UniProt Q5TCX8); assay: SelectScreen kinase profiling, LanthaScreen binding; conditions: MLK4, 10 µM
MLK4, sequence (Q5TCX8 whole entry): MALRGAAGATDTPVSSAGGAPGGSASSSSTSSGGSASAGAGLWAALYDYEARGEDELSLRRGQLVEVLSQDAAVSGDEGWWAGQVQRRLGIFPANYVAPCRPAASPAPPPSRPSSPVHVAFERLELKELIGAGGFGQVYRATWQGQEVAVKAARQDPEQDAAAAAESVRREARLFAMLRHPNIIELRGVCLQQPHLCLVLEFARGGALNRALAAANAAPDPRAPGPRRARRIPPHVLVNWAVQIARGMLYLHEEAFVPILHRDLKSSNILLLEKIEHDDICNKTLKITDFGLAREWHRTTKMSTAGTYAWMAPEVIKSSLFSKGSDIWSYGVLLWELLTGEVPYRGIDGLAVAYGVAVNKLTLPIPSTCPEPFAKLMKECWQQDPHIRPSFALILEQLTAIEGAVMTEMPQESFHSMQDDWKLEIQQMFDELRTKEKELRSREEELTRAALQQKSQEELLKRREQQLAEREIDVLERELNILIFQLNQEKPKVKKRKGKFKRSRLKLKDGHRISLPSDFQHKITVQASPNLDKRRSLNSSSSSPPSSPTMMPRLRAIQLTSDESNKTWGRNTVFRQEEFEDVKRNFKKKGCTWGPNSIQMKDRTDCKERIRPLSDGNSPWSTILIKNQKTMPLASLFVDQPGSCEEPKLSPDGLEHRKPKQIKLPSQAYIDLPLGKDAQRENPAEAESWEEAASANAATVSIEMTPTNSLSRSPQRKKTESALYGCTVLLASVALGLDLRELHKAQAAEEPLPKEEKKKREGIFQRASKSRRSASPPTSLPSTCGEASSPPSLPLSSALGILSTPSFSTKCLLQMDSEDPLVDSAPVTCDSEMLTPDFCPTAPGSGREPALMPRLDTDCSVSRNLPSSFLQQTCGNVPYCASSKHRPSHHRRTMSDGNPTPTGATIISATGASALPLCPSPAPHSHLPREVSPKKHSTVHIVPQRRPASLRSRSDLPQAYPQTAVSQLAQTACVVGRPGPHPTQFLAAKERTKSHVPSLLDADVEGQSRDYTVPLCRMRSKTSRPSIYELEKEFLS

P450 2J2 [1] = biological target: T1, P450 2J2 (Homo sapiens, UniProt P51589)
T1 sequence (P51589 whole entry): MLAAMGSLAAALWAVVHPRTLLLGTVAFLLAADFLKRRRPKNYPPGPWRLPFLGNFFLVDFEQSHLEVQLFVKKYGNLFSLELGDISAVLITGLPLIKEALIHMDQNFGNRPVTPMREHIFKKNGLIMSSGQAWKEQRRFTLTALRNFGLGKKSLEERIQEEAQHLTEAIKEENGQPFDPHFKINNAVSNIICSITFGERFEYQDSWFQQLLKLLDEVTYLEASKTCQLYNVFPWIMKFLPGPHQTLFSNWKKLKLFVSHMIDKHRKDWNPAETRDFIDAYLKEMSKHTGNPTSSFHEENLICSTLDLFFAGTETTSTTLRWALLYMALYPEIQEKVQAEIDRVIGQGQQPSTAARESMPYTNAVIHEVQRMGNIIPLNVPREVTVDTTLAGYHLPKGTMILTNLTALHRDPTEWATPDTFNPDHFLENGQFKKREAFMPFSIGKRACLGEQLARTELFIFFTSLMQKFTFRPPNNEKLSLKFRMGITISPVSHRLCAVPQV

MINK1 = MINK1 (Homo sapiens, UniProt Q8N4C8); assay: SelectScreen kinase profiling, ZLYTE; assay type: biochemical; conditions: MINK1, 10 µM
P450 1A2 = P450 1A2 (Homo sapiens, UniProt P05177); assay: SelectScreen P450 Vivid biochemical assay; conditions: 10000nM; substrate EOMCC
hERG channel = hERG channel (Homo sapiens, UniProt Q12809); assay: Predictor hERG fluorescence polarization assay; conditions: 10000nM
CDK7/cyclin H/MNAT1 = CDK7/cyclin H/MNAT1 (Homo sapiens, UniProt P50613); assay: SelectScreen kinase profiling, Adapta; assay type: biochemical; conditions: CDK7/cyclin H/MNAT1, 10 µM
PEAK1 = PEAK1 (Homo sapiens, UniProt Q9H792); assay: SelectScreen kinase profiling, ZLYTE; assay type: biochemical; conditions: PEAK1, 10 µM
BLK = BLK (Homo sapiens, UniProt P51451); assay: SelectScreen kinase profiling, ZLYTE; assay type: biochemical
EPHB1 = EPHB1 (Homo sapiens, UniProt P54762); assay: SelectScreen kinase profiling, ZLYTE; assay type: biochemical; conditions: EPHB1, 10 µM
LIMK1 = LIMK1 (Homo sapiens, UniProt P53667); assay: SelectScreen kinase profiling, LanthaScreen binding; conditions: LIMK1, 10 µM
MYLK (MLCK) = MYLK (MLCK) (Homo sapiens, UniProt Q15746); assay: as above
MAP3K5 (ASK1) = MAP3K5 (ASK1) (Homo sapiens, UniProt Q99683); assay: as above
PLK1 = PLK1 (Homo sapiens, UniProt P53350); assay: SelectScreen kinase profiling, ZLYTE; assay type: biochemical; conditions: PLK1, 10 µM
PIP5K1B = PIP5K1B (Homo sapiens, UniProt O14986); assay: SelectScreen kinase profiling, Adapta; assay type: biochemical
GRK4 = GRK4 (Homo sapiens, UniProt P32298); assay: SelectScreen kinase profiling, ZLYTE; assay type: biochemical; conditions: GRK4, 10 µM
GRK4, sequence (P32298 whole entry): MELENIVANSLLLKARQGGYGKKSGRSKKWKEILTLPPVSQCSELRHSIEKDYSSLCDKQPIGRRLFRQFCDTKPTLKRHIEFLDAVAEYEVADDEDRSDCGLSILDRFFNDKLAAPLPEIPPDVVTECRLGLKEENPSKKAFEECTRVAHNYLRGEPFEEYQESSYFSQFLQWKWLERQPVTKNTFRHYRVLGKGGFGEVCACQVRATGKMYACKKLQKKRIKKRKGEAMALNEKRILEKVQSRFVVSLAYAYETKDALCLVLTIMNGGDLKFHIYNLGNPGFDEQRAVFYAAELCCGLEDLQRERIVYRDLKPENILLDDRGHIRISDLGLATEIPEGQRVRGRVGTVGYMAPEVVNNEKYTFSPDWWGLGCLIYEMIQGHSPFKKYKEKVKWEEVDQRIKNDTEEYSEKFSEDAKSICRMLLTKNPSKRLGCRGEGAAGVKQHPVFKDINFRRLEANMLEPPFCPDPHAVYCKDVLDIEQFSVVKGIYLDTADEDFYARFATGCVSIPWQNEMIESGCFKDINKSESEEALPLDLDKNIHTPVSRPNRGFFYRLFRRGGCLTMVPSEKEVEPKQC

FGFR1 = FGFR1 (Homo sapiens, UniProt P11362); assay: SelectScreen kinase profiling, ZLYTE; assay type: biochemical; conditions: FGFR1, 10 µM
FGFR1, sequence (P11362 22-822): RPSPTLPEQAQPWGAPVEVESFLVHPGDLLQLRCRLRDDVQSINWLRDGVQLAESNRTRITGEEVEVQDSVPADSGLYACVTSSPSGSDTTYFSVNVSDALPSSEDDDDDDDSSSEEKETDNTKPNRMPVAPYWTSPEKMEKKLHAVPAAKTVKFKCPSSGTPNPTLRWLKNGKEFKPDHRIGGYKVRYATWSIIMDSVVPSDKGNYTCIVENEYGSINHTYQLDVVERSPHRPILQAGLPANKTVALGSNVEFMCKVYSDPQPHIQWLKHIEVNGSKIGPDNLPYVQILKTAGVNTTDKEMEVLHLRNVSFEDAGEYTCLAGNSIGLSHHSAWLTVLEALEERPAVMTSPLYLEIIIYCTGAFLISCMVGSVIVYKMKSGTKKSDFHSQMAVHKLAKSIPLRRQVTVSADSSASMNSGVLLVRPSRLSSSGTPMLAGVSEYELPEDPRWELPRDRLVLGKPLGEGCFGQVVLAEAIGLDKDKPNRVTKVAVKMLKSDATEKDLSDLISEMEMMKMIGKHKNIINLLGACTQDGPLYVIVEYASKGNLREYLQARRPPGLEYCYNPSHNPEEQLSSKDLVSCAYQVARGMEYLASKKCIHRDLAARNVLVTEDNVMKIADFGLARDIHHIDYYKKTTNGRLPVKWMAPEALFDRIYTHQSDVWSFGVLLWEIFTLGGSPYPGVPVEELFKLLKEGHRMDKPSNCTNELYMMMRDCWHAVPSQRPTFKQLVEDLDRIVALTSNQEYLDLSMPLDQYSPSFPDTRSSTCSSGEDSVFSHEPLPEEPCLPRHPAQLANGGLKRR

NEK7 = NEK7 (Homo sapiens, UniProt Q8TDX7); assay: SelectScreen kinase profiling, ZLYTE; assay type: biochemical; conditions: NEK7, 10 µM
PRKG1 = PRKG1 (Homo sapiens, UniProt Q13976); assay: SelectScreen kinase profiling, ZLYTE; assay type: biochemical; conditions: PRKG1, 10 µM
LYN B = LYN B (Homo sapiens, UniProt P07948); assay: SelectScreen kinase profiling, ZLYTE; assay type: biochemical
FLT3 ITD = assay: SelectScreen kinase profiling, LanthaScreen binding; conditions: 10 µM
AMPK (A1/B2/G2) = AMPK (A1/B2/G2) (Homo sapiens, UniProt Q13131); assay: SelectScreen kinase profiling, ZLYTE; assay type: biochemical
MAPK9 (JNK2) = MAPK9 (JNK2) (Homo sapiens, UniProt P45984); assay: SelectScreen kinase profiling, ZLYTE; assay type: biochemical
HIPK3 (YAK1) = HIPK3 (YAK1) (Homo sapiens, UniProt Q9H422); assay: SelectScreen kinase profiling, ZLYTE; assay type: biochemical
P450 2C9 = P450 2C9 (Homo sapiens, UniProt P11712); assay: SelectScreen P450 Vivid biochemical assay; conditions: 10000nM; substrate BOMF
CAMK2G (CaMKII gamma) = CAMK2G (CaMKII gamma) (Homo sapiens, UniProt Q13555); assay: SelectScreen kinase profiling, LanthaScreen binding
CDK4/cyclin D3 = CDK4/cyclin D3 (Homo sapiens, UniProt P11802); assay: SelectScreen kinase profiling, Adapta; assay type: biochemical; conditions: CDK4/cyclin D3, 10 µM
P450 2J2 [2] = biological target: T1, P450 2J2; assay: SelectScreen P450 Vivid biochemical assay; conditions: 10000nM; substrate MOBFC
MATK (HYL) = MATK (HYL) (Homo sapiens, UniProt P42679); assay: SelectScreen kinase profiling, ZLYTE; assay type: biochemical
KIT D816H = KIT D816H (Homo sapiens, UniProt P10721, D816H); assay: SelectScreen kinase profiling, LanthaScreen binding
SNF1LK2 = SNF1LK2 (Homo sapiens, UniProt Q9H0K1); assay: SelectScreen kinase profiling, ZLYTE; assay type: biochemical; conditions: SNF1LK2, 10 µM
SNF1LK2, sequence (Q9H0K1 whole entry): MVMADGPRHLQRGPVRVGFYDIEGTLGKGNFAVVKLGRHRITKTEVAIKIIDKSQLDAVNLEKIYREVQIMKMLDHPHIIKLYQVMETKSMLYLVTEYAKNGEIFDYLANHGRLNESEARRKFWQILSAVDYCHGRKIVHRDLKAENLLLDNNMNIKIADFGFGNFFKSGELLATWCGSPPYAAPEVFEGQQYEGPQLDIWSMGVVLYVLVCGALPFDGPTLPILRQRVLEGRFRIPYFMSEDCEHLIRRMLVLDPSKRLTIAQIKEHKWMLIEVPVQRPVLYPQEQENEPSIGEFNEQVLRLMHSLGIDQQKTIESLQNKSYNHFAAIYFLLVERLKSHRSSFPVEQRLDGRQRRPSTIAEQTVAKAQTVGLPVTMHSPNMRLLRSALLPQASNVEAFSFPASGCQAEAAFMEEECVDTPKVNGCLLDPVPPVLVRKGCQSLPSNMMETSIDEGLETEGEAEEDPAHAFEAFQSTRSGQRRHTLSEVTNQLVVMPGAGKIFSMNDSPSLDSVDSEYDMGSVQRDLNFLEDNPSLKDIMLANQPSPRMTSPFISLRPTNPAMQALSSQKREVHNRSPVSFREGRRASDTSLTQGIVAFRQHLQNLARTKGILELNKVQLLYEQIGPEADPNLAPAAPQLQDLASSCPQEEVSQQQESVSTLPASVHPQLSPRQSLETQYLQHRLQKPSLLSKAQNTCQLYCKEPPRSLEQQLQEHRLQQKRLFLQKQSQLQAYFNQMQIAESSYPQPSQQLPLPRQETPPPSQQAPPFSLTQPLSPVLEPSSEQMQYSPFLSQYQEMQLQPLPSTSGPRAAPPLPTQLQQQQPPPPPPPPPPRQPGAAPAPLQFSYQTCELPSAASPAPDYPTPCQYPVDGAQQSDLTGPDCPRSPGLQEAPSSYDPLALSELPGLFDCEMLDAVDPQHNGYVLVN

AXL = AXL (Homo sapiens, UniProt P30530); assay: SelectScreen kinase profiling, ZLYTE; assay type: biochemical
NEK4 = NEK4 (Homo sapiens, UniProt P51957); assay: SelectScreen kinase profiling, ZLYTE; assay type: biochemical; conditions: NEK4, 10 µM
NEK4, sequence (P51957 whole entry): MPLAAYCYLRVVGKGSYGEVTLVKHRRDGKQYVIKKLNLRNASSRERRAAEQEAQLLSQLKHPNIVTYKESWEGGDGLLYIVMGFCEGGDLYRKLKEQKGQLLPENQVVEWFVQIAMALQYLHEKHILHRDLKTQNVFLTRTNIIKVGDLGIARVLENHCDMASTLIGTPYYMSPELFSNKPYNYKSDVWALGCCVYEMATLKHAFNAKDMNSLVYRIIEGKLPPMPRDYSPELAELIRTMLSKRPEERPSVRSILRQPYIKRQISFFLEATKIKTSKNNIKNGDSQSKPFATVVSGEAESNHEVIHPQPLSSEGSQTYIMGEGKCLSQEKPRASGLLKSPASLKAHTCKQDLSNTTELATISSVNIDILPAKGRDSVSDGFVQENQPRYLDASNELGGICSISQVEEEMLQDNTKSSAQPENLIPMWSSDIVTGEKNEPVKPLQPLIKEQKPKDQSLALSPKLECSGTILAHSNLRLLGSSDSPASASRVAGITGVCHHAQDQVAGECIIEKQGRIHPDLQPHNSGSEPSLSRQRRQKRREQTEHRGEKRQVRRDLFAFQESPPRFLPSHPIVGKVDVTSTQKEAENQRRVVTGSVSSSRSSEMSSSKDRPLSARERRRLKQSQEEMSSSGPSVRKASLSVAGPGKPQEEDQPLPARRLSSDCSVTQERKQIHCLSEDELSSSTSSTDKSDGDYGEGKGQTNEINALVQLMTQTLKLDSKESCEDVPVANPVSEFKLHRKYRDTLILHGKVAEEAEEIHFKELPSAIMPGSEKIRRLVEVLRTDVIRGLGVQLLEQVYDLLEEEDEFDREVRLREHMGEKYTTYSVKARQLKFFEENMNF

SPHK2 = SPHK2 (Homo sapiens, UniProt Q9NRA0); assay: SelectScreen kinase profiling, Adapta; assay type: biochemical; conditions: SPHK2, 10 µM
DYRK1B = DYRK1B (Homo sapiens, UniProt Q9Y463); assay: SelectScreen kinase profiling, ZLYTE; assay type: biochemical
MET M1250T = MET M1250T (Homo sapiens, UniProt P08581, M1250T); assay: SelectScreen kinase profiling, ZLYTE; assay type: biochemical

MAP2K1 (MEK1), sequence (Q02750 whole entry): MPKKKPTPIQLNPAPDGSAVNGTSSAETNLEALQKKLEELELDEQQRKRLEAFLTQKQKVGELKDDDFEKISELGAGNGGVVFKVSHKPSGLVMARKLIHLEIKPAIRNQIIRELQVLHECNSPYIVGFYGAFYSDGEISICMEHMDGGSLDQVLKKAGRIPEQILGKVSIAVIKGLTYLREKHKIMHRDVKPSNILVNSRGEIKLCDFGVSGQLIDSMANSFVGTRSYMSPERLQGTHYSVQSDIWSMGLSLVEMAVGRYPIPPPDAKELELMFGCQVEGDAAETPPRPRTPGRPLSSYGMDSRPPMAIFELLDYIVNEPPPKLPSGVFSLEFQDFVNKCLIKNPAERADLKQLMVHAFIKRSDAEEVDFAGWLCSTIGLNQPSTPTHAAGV

## O=C(c1ccc(/C=C/c2n[nH]c3ccccc23)cc1)N1CCNCC1 [KW-2449]
DMPK
  inhibition at 10 µM: 77%
MAP2K1 (MEK1)
  inhibition at 10 µM: 54%
TEK (TIE2) Y1108F
  inhibition at 10 µM: 72%
MON cells
  pIC50: 5.61
MLK4
  inhibition at 10 µM: 17%
P450 2J2 [1]
  pIC50: 6.60
MINK1
  inhibition at 10 µM: 102%
P450 1A2
  % Inhibition 1A2 EOMCC: -3%
hERG channel
  hERG % Inhibition: 19%
CDK7/cyclin H/MNAT1
  inhibition at 10 µM: 98%
PEAK1
  inhibition at 10 µM: 91%
BLK
  inhibition at 10 µM: 89%
EPHB1
  inhibition at 10 µM: 97%
LIMK1
  inhibition at 10 µM: 32%
MYLK (MLCK)
  inhibition at 10 µM: 80%
MAP3K5 (ASK1)
  inhibition at 10 µM: 63%
PLK1
  inhibition at 10 µM: 16%
PIP5K1B
  inhibition at 10 µM: 32%
GRK4
  inhibition at 10 µM: 61%
FGFR1
  inhibition at 10 µM: 96%
NEK7
  inhibition at 10 µM: 7%
PRKG1
  inhibition at 10 µM: 77%
LYN B
  inhibition at 10 µM: 94%
FLT3 ITD
  % Inhibition Avg: 5%
AMPK (A1/B2/G2)
  inhibition at 10 µM: 99%
MAPK9 (JNK2)
  inhibition at 10 µM: 87%
HIPK3 (YAK1)
  inhibition at 10 µM: 53%
P450 2C9
  % Inhibition 2C9 BOMF: -2%
CAMK2G (CaMKII gamma)
  inhibition at 10 µM: -110%
CDK4/cyclin D3
  inhibition at 10 µM: 83%
P450 2J2 [2]
  % Inhibition 2J2 MOBFC: 96%
MATK (HYL)
  inhibition at 10 µM: 37%
KIT D816H
  inhibition at 10 µM: 42%
SNF1LK2
  inhibition at 10 µM: 97%
AXL
  inhibition at 10 µM: 95%
NEK4
  inhibition at 10 µM: 96%
SPHK2
  inhibition at 10 µM: 7%
DYRK1B
  inhibition at 10 µM: 91%
MET M1250T
  inhibition at 10 µM: 96%
